Test results reported in US8648059B2, “Use of epicatechin and derivatives and salts thereof for cardiac protection of ischemic myocardium and to ameliorate adverse cardiac remodeling” (The Regents of the University of California, priority 2008, dated 2014).

Tested on: Sprague Dawley rats
Test: IR (30 minutes ischemia) infarct size, single IV therapy 15 min before reperfusion
Type: in vivo, rat
Conditions: methods of Example 5; FIG. 16
Experimental: Lateral thoracotamy with 30 minutes ischemia>reperfusion was performed a treated per the groups above 15 min before reperfusion IV in the femoral artery. Animals were humanely sacrificed and the hearts were then section and stained to examine tissue injury.

catechin was tested, and the area at risk was “no effect” and the infarction size was “no effect”.
